From patent publication US20250296953A1, “3,4-THIAZOLO-STEROIDS AND METHODS OF MAKING AND USING THE SAME” (Arkansas State University - Jonesboro, priority 2018, published 2025)

Experiments:
NCI-H522 (NSCLC) = experiment: NCI 60 one dose screen; format: cell-based, human; conditions: Non-small Cell Lung Cancer
SF-539 = experiment: NCI 60 one dose screen; format: cell-based, human
HCT-15 (Colon Cancer) = experiment: NCI 60 one dose screen; format: cell-based, human
[1] = tested on: 60 different human tumor cell lines; experiment: NCI Development Therapeutics Program 60 cell line screen, one dose; format: cell-based
SF-295 = experiment: NCI 60 one dose screen; format: cell-based, human
MALME-3M = experiment: Melanoma cytotoxicity assay (resazurin); format: cell-based; conditions: MALME-3M melanoma cells; percent viability vs DMSO control; 24 hours with compound
Experimental: (§1) On day 1, the cell line trypsinized and centrifuged to form cell pellet. The pellet was diluted in media, then counted using Countess automated cell counter. Approximately 4000 cells (198 uL) per well plated in […]. A control well of 200 uL growth media was also prepared. Wells closest to plate perimeter were filled with 200 uL PBS to prevent inner well evaporation. The 96 well plates are incubated in 37° C. incubator at 5% CO2 for 24 hours.
(§2) On day 2, compounds were added (in triplicate) along with DMSO/Dacarbazine controls (2 uL) added to bring wells to volume of 200 μL. The 96 well plates are incubated in 37° C. incubator at 5% CO2 for 24 hours.
(§3) On day 3, 40 μL of 0.15 mg/ml reszurin solution added to wells. Samples were placed in a 37° C. incubator at 5% CO2 for 6 hours. Excitation and emission for fluorescence measured at 544 nm and 590 nm using BMG Labtech Fluostar Optima plate reader
(§4) Percent viability determined by taking average of each triplicate well fluorescence and subtracting GM well reading to remove the background signal. This difference is then divided by the average of the negative control (DMSO) wells to determine percent viability.
(§5) IC50s were determined by using cereal dilution of compound to determine viability. Viabilities and concentration of cells are analyzed in Graphpad Prism by creating sigmoidal curve graph, which will determine the IC50 concentration.
(§6) We analyzed the ability of the thiazole-androstane derivatives to inhibit growth in various melanoma cell lines. The growth inhibition against melanoma cell lines of various compound is shown below in Tables 19 and 20. Inhibition results are reported as the IC50 concentration in μM of the indicated compound or as the percent viability […] of the indicated compound. NA=not available.

SK-MEL-5 = experiment: Melanoma cytotoxicity assay (resazurin); format: cell-based; conditions: SK-MEL-5 melanoma cells; percent viability vs DMSO control; 24 hours with compound
Experimental: (§7) Cytotoxicity Assay: Melanoma cells (˜4000 cells in each well) were incubated in a 96 well plates at 37° C. in 5% CO2 for 24 hours. Compounds were added in triplicates and the plate was further incubated for 24 hours. DMSO and dacarbazine were added as technical and positive controls respectively. Next day resazurin was added and the plate was further incubated for 6 hours followed by reading the plate at 544 nm (excitation) and 590 nm (emission) using BMG Labtech Fluostar Optima plate reader. IC50 values were determined by using Graphpad Prism.
as §1, §2, §3, §4, §5, §6

SK-MEL-25 = experiment: Melanoma cytotoxicity assay (resazurin); format: cell-based; conditions: SK-MEL-25 melanoma cells; percent viability vs DMSO control; 24 hours with compound
Experimental: as §7, §1, §2, §3, §4, §5, §6

SK-MEL-28 = experiment: Melanoma cytotoxicity assay (resazurin); format: cell-based; conditions: SK-MEL-28 melanoma cells; percent viability vs DMSO control; 24 hours with compound
Experimental: as §7, §1, §2, §3, §4, §5, §6

LOX IMVI = experiment: Melanoma cytotoxicity assay (resazurin); format: cell-based; conditions: LOX IMVI melanoma cells; percent viability vs DMSO control; 24 hours with compound
Experimental: as §7, §1, §2, §3, §4, §5, §6

Molecule: (1S,2R,13R,14S,18S)-7-(3-fluorophenyl)-2,18-dimethyl-8-thia-6-azapentacyclo[11.7.0.02,10.05,9.014,18]icosa-5(9),7,10-trien-17-one [II.12]
- Growth Percent (NCI-H522 (NSCLC)): −36.55%
- mean growth percent (SF-539; SF-539 (CNS cancer panel), 10 μM): −33.43%
- Growth Percent (SF-539; one dose, CNS Cancer, SF-539): −33.43%
- Growth Percent (HCT-15 (Colon Cancer)): −38.17%
- Growth Percent ([1]; Breast Cancer, BT-549): 23.16%
- Growth Percent ([1]; Breast Cancer, HS 578T): 27.43%
- Growth Percent ([1]; Breast Cancer, MCF7): 10.76%
- Growth Percent ([1]; Breast Cancer, MDA-MB-231/ATCC): 62.02%
- Growth Percent ([1]; Breast Cancer, MDA-MB-468): 29.20%
- Growth Percent ([1]; Breast Cancer, T-47D): 3.07%
- Growth Percent ([1]; CNS Cancer, SF-268): 52.39%
- Growth Percent ([1]; CNS Cancer, SNB-19): 60.01%
- Growth Percent ([1]; CNS Cancer, SNB-75): 44.61%
- Growth Percent ([1]; CNS Cancer, U251): 18.77%
- Growth Percent ([1]; Colon Cancer, COLO 205): 44.55%
- Growth Percent ([1]; Colon Cancer, HCC-2998): 79.47%
- Growth Percent ([1]; Colon Cancer, HCT-116): 0.51%
- Growth Percent ([1]; Colon Cancer, HT29): 5.21%
- Growth Percent ([1]; Colon Cancer, KM12): 46.48%
- Growth Percent ([1]; Colon Cancer, SW-620): 3.81%
- Growth Percent ([1]; Leukemia, CCRF-CEM): 15.82%
- Growth Percent ([1]; Leukemia, HL-60(TB)): 34.18%
- Growth Percent ([1]; Leukemia, K-562): 7.01%
- Growth Percent ([1]; Leukemia, MOLT-4): 5.82%
- Growth Percent ([1]; Leukemia, RPMI-8226): −2.88%
- Growth Percent ([1]; Leukemia, SR): 5.11%
- Growth Percent ([1]; Melanoma, LOX IMVI): 1.34%
- Growth Percent ([1]; Melanoma, M14): 57.14%
- Growth Percent ([1]; Melanoma, MALME-3M): 37.62%
- Growth Percent ([1]; Melanoma, MDA-MB-435): 49.24%
- Growth Percent ([1]; Melanoma, SK-MEL-2): 32.06%
- Growth Percent ([1]; Melanoma, SK-MEL-5): 61.51%
- Growth Percent ([1]; Melanoma, SK-MEL-28): 48.00%
- Growth Percent ([1]; Melanoma, UACC-62): 34.85%
- Growth Percent ([1]; Melanoma, UACC-257): 77.45%
- Growth Percent ([1]; Non-small Cell Lung Cancer, A549/ATCC): 55.01%
- Growth Percent ([1]; Non-small Cell Lung Cancer, EKVX): 68.33%
- Growth Percent ([1]; Non-small Cell Lung Cancer, HOP-62): 50.54%
- Growth Percent ([1]; Non-small Cell Lung Cancer, HOP-92): 74.28%
- Growth Percent ([1]; Non-small Cell Lung Cancer, NCI-H23): 62.70%
- Growth Percent ([1]; Non-small Cell Lung Cancer, NCI-H226): 65.84%
- Growth Percent ([1]; Non-small Cell Lung Cancer, NCI-H322M): 69.34%
- Growth Percent ([1]; Non-small Cell Lung Cancer, NCI-H460): 53.88%
- Growth Percent ([1]; Ovarian Cancer, IGROV1): 0.60%
- Growth Percent ([1]; Ovarian Cancer, NCI/ADR-RES): 68.33%
- Growth Percent ([1]; Ovarian Cancer, OVCAR-3): 7.89%
- Growth Percent ([1]; Ovarian Cancer, OVCAR-4): 65.10%
- Growth Percent ([1]; Ovarian Cancer, OVCAR-5): 87.24%
- Growth Percent ([1]; Ovarian Cancer, OVCAR-8): 28.53%
- Growth Percent ([1]; Ovarian Cancer, SK-OV-3): 17.92%
- Growth Percent ([1]; Prostate Cancer, DU-145): 22.88%
- Growth Percent ([1]; Prostate Cancer, PC-3): 35.02%
- Growth Percent ([1]; Renal Cancer, 786-0): −10.07%
- Growth Percent ([1]; Renal Cancer, ACHN): 11.90%
- Growth Percent ([1]; Renal Cancer, CAKI-1): 36.88%
- Growth Percent ([1]; Renal Cancer, RXF 393): −22.47%
- Growth Percent ([1]; Renal Cancer, SN12C): 42.89%
- Growth Percent ([1]; Renal Cancer, TK-10): 24.03%
- Growth Percent ([1]; Renal Cancer, UO-31): 1.08%
- mean growth percent (SF-295; SF-295 (CNS cancer panel), 10 μM): −18.91%
- Growth Percent (SF-295; one dose, CNS Cancer, SF-295): −18.91%

Molecule: C[C@]12CC[C@H]3[C@@H](CC=C4c5sc(Nc6cccc(O)c6)nc5CC[C@@]43C)[C@@H]1CC[C@@H]2O [IIIa.39]
- MALME-3M (% viability) (MALME-3M): 45.95%
- SK-MEL-5 (% viability) (SK-MEL-5): 6.75%
- SK-MEL-25 (% viability) (SK-MEL-25): 6.33%
- SK-MEL-28 (% viability) (SK-MEL-28): 3.71%
- LOX-IMVI (% viability) (LOX IMVI): 51%
